The record followed here is patent US10494360B2, “Inhibitors of indoleamine 2,3-dioxygenase” (NETHERLANDS TRANSLATIONAL RESEARCH CENTER B.V., priority 2016, dated 2019).

Values joined by “and” are separate entries in the source; they are usually repeats but may differ in a detail not shown here. Equal entries are not always repeated. Where only a bound is given, the exact number is not on record here.

This test has as its target IDO1 (Homo sapiens, UniProt P14902). As to the kind of experiment: Biochemical IDO1 assay (NFK GreenScreen). Also noted: Recombinant full-length IDO1 (Seegers, N., et al.) and all other assay components were diluted in IDO1 reaction buffer; made in house. To be noted: for IC50: recombinant full-length IDO1 25 nM, L-tryptophan 100 μM, NFK Green detection, read-out: IC50, inhibitory potency on IDO1; for relative activity of separated isomers: less active / most active isomer of the pair, assay not given. The procedure:
Inhibition of IDO1 activity can be measured by determining the enzymatic conversion of L-tryptophan into N-formylkynurenine (NFK) in a reaction mixture containing IDO1 and test compound. The formation of NFK can be detected directly by, for instance, high-performance liquid chromatography (HPLC) methods, or by intrinsic fluorescence.
Compounds were serially diluted in dimethylsulfoxide (DMSO) and finally in IDO1 reaction buffer, consisting of 50 mM NaH2PO4, pH7.0, supplemented with 0.05% Tween-20 (cat. No. P7949; Sigma Aldrich) and 1% glycerol. Recombinant full-length IDO1 (Seegers, N., et al.) and all other assay components were diluted in IDO1 reaction buffer. […] Subsequently, 10 μl of 0.4 mM of the substrate L-tryptophan was added, i.e., the final concentration of L-tryptophan was 100 μM. The DMSO concentration in the assay was 0.3%. […] Incubation was continued for 60 min at room temperature. Then, 10 μl of NFK Green™ (NTRC, Oss, The Netherlands) was added, the plate was sealed, and the reaction was developed for 3 hours at 37° C. To determine the production of N-formyl kynurenine (NFK), the seal was removed and fluorescence was read on an EnVision multimode reader (Perkin Elmer, Waltham, Mass., USA). IC50 were calculated using XLfit™ software (ID Business Solutions, Ltd., Surrey, U.K.).

Chain of IDO1 (P14902 whole entry, species assumed): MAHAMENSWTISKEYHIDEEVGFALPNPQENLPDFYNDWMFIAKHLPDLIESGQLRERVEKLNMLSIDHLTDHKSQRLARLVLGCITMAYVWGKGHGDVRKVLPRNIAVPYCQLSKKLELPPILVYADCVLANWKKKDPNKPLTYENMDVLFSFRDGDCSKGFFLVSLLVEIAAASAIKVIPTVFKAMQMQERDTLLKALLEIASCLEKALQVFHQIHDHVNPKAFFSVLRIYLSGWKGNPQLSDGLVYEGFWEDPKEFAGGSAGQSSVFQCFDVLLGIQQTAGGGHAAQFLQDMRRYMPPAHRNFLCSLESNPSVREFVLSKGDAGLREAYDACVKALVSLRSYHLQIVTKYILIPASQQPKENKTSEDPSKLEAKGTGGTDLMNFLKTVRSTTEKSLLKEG

In the case of `O=C1CN(C(=O)c2ccc(F)cc2)C(c2ccc(F)c(Br)c2)N1O` (stereo not shown) [Example 40, 2-(3-Bromo-4-fluoro-phenyl)-1-(4-fluorobenzoyl)-3-hydroxy-imidazolidin-4-one], the IC50 – broadly, the point on the concentration scale where inhibition reaches its midpoint – is ≤ 5 µM and 1 to 5 µM.

On to `O=C1CN(C(=O)c2ccccc2F)C(c2ccc(Cl)c(C(F)(F)F)c2)N1O` (stereo not shown) [Example 8, 2-[4-Chloro-3-(trifluoromethyl)phenyl]-1-(2-fluorobenzoyl)-3-hydroxy-imidazolidin-4-one], for which the IC50 is ≤ 5 µM and 1 to 5 µM.

Take `O=C1CN(C(=O)c2ccc(Cc3ccccc3)cc2)C(c2cccc(Br)c2)N1O` (stereo not shown) [Example 74, 1-(4-Benzylbenzoyl)-2-(3-bromophenyl)-3-hydroxy-imidazolidin-4-one]: the half-maximal inhibitory concentration (IC50) was ≤ 5 µM and 1 to 5 µM.

On to `O=C1CN(C(=O)c2c(Cl)cccc2Cl)C(c2ccc(F)c(Br)c2)N1O` (stereo not shown) [Example 48, 2-(3-Bromo-4-fluoro-phenyl)-1-(2,6-dichlorobenzoyl)-3-hydroxy-imidazolidin-4-one], for which the IC50 is ≤ 5 µM and 1 to 5 µM.

Regarding `O=C1CN(C(=O)c2c(F)cccc2Cl)C(c2ccc(F)c(Br)c2)N1O` (single isomer, unassigned) [Example 143a, 2-(3-bromo-4-fluoro-phenyl)-1-(2-chloro-6-fluoro-benzoyl)-3-hydroxy-imidazolidin-4-one], the “relative activity of separated isomers” value is “less active isomer”; the IC50 is ≤ 5 µM and 1 to 5 µM.

Regarding `NS(=O)(=O)N1CCC(C(=O)N2CC(=O)N(O)C2c2cccc(Br)c2)CC1` (stereo not shown) [Example 101, 4-[2-(3-Bromophenyl)-3-hydroxy-4-oxo-imidazolidine-1-carbonyl]piperidine-1-sulfonamide], the IC50 is ≤ 5 µM and 1 to 5 µM.

For the compound `O=C1CN(C(=O)c2ccccc2)C(c2cccc(Cl)c2)N1O` (stereo not shown) [Example 60, 1-Benzoyl-2-(3-chlorophenyl)-3-hydroxy-imidazolidin-4-one], the 50% inhibitory concentration (IC50) is ≤ 5 µM and 1 to 5 µM.

As for `O=C1CN(C(=O)c2c(F)cc(CCC3CCCCC3)cc2F)C(c2cccc(Br)c2)N1O` (stereo not shown) [Example 131, 2-(3-Bromophenyl)-1-[4-(2-cyclohexylethyl)-2,6-difluoro-benzoyl]-3-hydroxy-imidazolidin-4-one], the concentration for half-maximal inhibition (IC50) was ≤ 5 µM and 1 to 5 µM.

For the compound `O=C1CN(C(=O)c2ccc(Oc3ccccc3)cc2)C(c2cccc(Br)c2)N1O` (stereo not shown) [Example 91, 2-(3-Bromophenyl)-3-hydroxy-1-(4-phenoxybenzoyl)imidazolidin-4-one], the IC50 is ≤ 5 µM and 1 to 5 µM.

For `O=C1CN(Cc2ccccc2F)C(c2cccc(I)c2)N1O` (single isomer, unassigned) [Example 146b, 1-[(2-fluorophenyl)methyl]-3-hydroxy-2-(3-iodophenyl)imidazolidin-4-one], the “relative activity of separated isomers” value is recorded as “most active isomer” and the IC50 is at most 1 µM.

As to `NS(=O)(=O)NCC#Cc1cc(F)c(C(=O)N2CC(=O)N(O)C2c2cccc(Br)c2)c(F)c1` (single isomer, unassigned) [Example 147b, 2-(3-bromophenyl)-1-[2,6-difluoro-4-[3-(sulfamoylamino)prop-1-ynyl]benzoyl]-3-hydroxy-4-oxo-imidazolidine], the “relative activity of separated isomers” value is reported as “most active isomer” and the concentration for half-maximal inhibition (IC50) is at most 1 µM.

Turning to `O=C1CN(C(=O)c2ncccc2F)C(c2cccc(Br)c2)N1O` (stereo not shown) [Example 89, 2-(3-Bromophenyl)-1-(3-fluoropyridine-2-carbonyl)-3-hydroxy-imidazolidin-4-one], the 50% inhibitory concentration (IC50) was ≤ 5 µM and 1 to 5 µM.

On to `Cc1cccc(C2N(O)C(=O)CN2C(=O)c2c(F)cccc2F)c1` (stereo not shown) [Example 69, 1-(2,6-Difluorobenzoyl)-3-hydroxy-2-(m-tolyl)imidazolidin-4-one], for which the IC50 was ≤ 5 µM and 1 to 5 µM.

For `CC(C)(C#Cc1cc(F)c(C(=O)N2CC(=O)N(O)C2c2cccc(Br)c2)c(F)c1)NS(N)(=O)=O` (stereo not shown) [Example 128, 2-(3-Bromophenyl)-1-[2,6-difluoro-4-[3-methyl-3-(sulfamoylamino)but-1-ynyl]benzoyl]-3-hydroxy-4-oxo-imidazolidine], the IC50 is at most 1 µM.

Consider `O=C1CN(C(=O)c2c(F)cccc2F)C(c2cccc(Br)c2)N1O` (single isomer, unassigned) [Example 142b, 2-(3-bromophenyl)-1-(2,6-difluorobenzoyl)-3-hydroxy-imidazolidin-4-one], for which the “relative activity of separated isomers” value is “most active isomer” and the IC50 was at most 1 µM.

As to `COc1ccc(C(=O)N2CC(=O)N(O)C2c2cccc(Br)c2)cc1` (stereo not shown) [Example 18, 2-(3-Bromophenyl)-3-hydroxy-1-(4-methoxybenzoyl)imidazolidin-4-one], the IC50 is ≤ 5 µM and 1 to 5 µM.

Take `O=C1CN(C(=O)c2ccccc2)C(c2cccc(C(F)(F)F)c2)N1O` (stereo not shown) [Example 1, 1-Benzoyl-3-hydroxy-2-[3-(trifluoromethyl)phenyl]imidazolidin-4-one]: the half-maximal inhibitory concentration (IC50) was ≤ 5 µM and 1 to 5 µM.

As to `O=C1CN(C(=O)c2cccs2)C(c2cccc(Br)c2)N1O` (stereo not shown) [Example 90, 2-(3-Bromophenyl)-3-hydroxy-1-(thiophene-2-carbonyl)imidazolidin-4-one], the IC50 was ≤ 5 µM and 1 to 5 µM.

As for `NS(=O)(=O)NCCCc1cc(F)c(C(=O)N2CC(=O)N(O)C2c2cccc(Br)c2)c(F)c1` (stereo not shown) [Example 132, 2-(3-Bromophenyl)-1-[2,6-difluoro-4-[3-(sulfamoylamino)propyl]benzoyl]-3-hydroxy-4-oxo-imidazolidine], the IC50 was at most 1 µM.

In the case of `O=C1CN(C(=O)c2c(F)cc(C#CC3CC3)cc2F)C(c2cccc(Br)c2)N1O` (single isomer, unassigned) [Example 144b, 2-(3-bromophenyl)-1-[4-(2-cyclopropylethynyl)-2,6-difluoro-benzoyl]-3-hydroxy-imidazolidin-4-one], the “relative activity of separated isomers” value was “most active isomer” and the IC50 was at most 1 µM.

In the case of `O=C1CN(C(=O)c2c(F)cccc2C(F)(F)F)C(c2cccc(Br)c2)N1O` (stereo not shown) [Example 37, 2-(3-Bromophenyl)-1-[2-fluoro-6-(trifluoromethyl)benzoyl]-3-hydroxy-imidazolidin-4-one], the half-maximal inhibitory concentration (IC50) is at most 1 µM.

`O=C1CN(C(=O)c2c(F)cc(C#CC3CC3)cc2F)C(c2cccc(Br)c2)N1O` (single isomer, unassigned) [Example 144a, 2-(3-bromophenyl)-1-[4-(2-cyclopropylethynyl)-2,6-difluoro-benzoyl]-3-hydroxy-imidazolidin-4-one]: the “relative activity of separated isomers” value is given as “less active isomer” and the IC50 is at most 1 µM.

Turning to `O=C1CN(C(=O)c2c(F)cccc2Cl)C(c2cccc(Cl)c2)N1O` (stereo not shown) [Example 14, 1-(2-Chloro-6-fluoro-benzoyl)-2-(3-chlorophenyl)-3-hydroxy-imidazolidin-4-one], the half-inhibitory concentration (IC50) was ≤ 5 µM and 1 to 5 µM.

With `C[C@@H](c1ccccc1)N1CC(=O)N(O)C1c1cccc(Br)c1` (single isomer, unassigned) [Example 139a], the “relative activity of separated isomers” value was “less active isomer”.

As for `C[C@@H](c1ccccc1)N1CC(=O)N(O)C1c1cccc(I)c1` (single isomer, unassigned) [Example 140b], the “relative activity of separated isomers” value is “most active isomer” and the IC50 is at most 1 µM.

In the case of `O=C1CN(C(=O)c2ccccc2Br)C(c2cccc(Br)c2)N1O` (stereo not shown) [Example 24, 1-(2-Bromobenzoyl)-2-(3-bromophenyl)-3-hydroxy-imidazolidin-4-one], the concentration for half-maximal inhibition (IC50) was ≤ 5 µM and 1 to 5 µM.

Take `O=C1CN(C(=O)c2c(F)cc(N3CCC3)cc2F)C(c2cccc(Br)c2)N1O` (stereo not shown) [Example 134, 1-[4-(Azetidin-1-yl)-2,6-difluoro-benzoyl]-2-(3-bromophenyl)-3-hydroxy-imidazolidin-4-one]: the half-maximal inhibitory concentration (IC50) was ≤ 5 µM and 1 to 5 µM.

As to `O=C1CN(C(=O)c2cccc(F)c2)C(c2cccc(Br)c2)N1O` (stereo not shown) [Example 36, 2-(3-Bromophenyl)-1-(3-fluorobenzoyl)-3-hydroxy-imidazolidin-4-one], the IC50 was at most 1 µM.

For the compound `O=C1CN(C(=O)c2c(F)cccc2F)C(c2ccnc(Br)c2)N1O` (stereo not shown) [Example 65, 2-(2-Bromo-4-pyridyl)-1-(2,6-difluorobenzoyl)-3-hydroxy-imidazolidin-4-one], the IC50 is ≤ 5 µM and 1 to 5 µM.

As to `CCOC(=O)NC[C@H]1CC[C@H](C(=O)N2CC(=O)N(O)C2c2cccc(Br)c2)CC1` (relative stereo) [Example 102, (Trans)-ethyl N-[[4-[2-(3-bromophenyl)-3-hydroxy-4-oxo-imidazolidine-1-carbonyl]cyclohexyl]-methyl]carbamate], the IC50 is ≤ 5 µM and 1 to 5 µM.

`O=C1CN(C(=O)c2ccccc2C(F)(F)F)C(c2cccc(Br)c2)N1O` (stereo not shown) [Example 28, 2-(3-Bromophenyl)-3-hydroxy-1-[2-(trifluoromethyl)benzoyl]imidazolidin-4-one]: the half-maximal inhibitory concentration (IC50) was ≤ 5 µM and 1 to 5 µM.

Consider `O=C1CN(C(=O)c2c(F)cc(-c3ccccc3)cc2F)C(c2cccc(Br)c2)N1O` (stereo not shown) [Example 117, 2-(3-Bromophenyl)-1-(2,6-difluoro-4-phenyl-benzoyl)-3-hydroxy-imidazolidin-4-one], for which the IC50 is at most 1 µM.

In the case of `O=C1CN(C(=O)c2cccnc2Cl)C(c2cccc(Br)c2)N1O` (stereo not shown) [Example 61, 2-(3-Bromophenyl)-1-(2-chloropyridine-3-carbonyl)-3-hydroxy-imidazolidin-4-one], the IC50 is ≤ 5 µM and 1 to 5 µM.
